Experimental data as given in ChEMBL document CHEMBL5523747, “Discovery of a Series of Orally Bioavailable Androgen Receptor Degraders for the Treatment of Prostate Cancer” (J Med Chem, 2024).
Calls of active or inactive are those of the source. The rule behind the calls is not given here.

Key:
[1] = target: T1, Protein cereblon/Androgen receptor (Homo sapiens, UniProt P10275+Q96SW2); test: PROTAC activity at AR/CRBN in human LNCaP cells assessed as protein degradation measured after 24 hrs incubation by imaging IF assay; assay type: cell-based
Target sequence in this assay (P10275 whole entry): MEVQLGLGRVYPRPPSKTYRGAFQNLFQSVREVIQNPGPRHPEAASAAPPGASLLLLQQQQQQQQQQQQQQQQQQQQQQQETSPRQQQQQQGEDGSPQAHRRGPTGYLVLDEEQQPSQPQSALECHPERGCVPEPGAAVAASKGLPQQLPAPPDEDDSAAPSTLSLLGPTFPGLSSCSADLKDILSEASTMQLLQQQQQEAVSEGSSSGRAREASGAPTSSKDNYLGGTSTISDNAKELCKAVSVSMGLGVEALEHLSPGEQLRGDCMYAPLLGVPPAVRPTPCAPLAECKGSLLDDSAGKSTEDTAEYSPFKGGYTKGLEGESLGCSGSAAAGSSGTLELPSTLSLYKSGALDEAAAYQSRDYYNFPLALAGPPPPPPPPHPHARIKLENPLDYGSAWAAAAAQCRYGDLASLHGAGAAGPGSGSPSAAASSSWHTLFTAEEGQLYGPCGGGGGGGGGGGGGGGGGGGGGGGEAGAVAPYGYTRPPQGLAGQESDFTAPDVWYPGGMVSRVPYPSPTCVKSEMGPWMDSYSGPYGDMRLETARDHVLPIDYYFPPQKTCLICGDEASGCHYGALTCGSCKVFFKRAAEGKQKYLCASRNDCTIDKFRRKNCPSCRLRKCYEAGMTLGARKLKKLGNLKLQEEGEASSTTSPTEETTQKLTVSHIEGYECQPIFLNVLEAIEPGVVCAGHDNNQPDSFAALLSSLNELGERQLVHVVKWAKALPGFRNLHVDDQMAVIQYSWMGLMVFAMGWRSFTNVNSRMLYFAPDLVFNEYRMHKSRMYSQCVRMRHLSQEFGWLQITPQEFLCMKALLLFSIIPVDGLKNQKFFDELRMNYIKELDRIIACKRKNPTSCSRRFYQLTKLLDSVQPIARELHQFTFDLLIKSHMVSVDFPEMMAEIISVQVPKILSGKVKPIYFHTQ
Target sequence in this assay (Q96SW2 whole entry): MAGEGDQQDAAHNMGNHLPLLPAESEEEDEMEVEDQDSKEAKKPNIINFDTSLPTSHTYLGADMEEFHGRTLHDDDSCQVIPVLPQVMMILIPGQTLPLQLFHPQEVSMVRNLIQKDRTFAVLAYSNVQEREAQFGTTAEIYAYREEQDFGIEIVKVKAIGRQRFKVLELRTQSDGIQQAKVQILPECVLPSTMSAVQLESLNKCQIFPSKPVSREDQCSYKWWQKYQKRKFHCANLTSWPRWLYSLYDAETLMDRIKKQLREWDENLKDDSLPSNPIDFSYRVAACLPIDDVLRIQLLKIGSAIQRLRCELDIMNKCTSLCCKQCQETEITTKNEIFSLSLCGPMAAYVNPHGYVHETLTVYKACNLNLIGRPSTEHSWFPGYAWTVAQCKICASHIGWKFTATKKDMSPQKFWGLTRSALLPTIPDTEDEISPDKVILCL

[2] = test system: Protein cereblon/Androgen receptor (Homo sapiens), P10275+Q96SW2 [L702H]; test: PROTAC activity at CRBN/AR L702H mutant (unknown origin) expressed in human LNCaP cells assessed as maximal protein degradation measured after 24 hrs incubation by imaging IF assay relative to control; assay type: cell-based
[3] = target: Protein cereblon/Androgen receptor (Homo sapiens, UniProt P10275+Q96SW2, L702H); test: PROTAC activity at CRBN/AR L702H mutant (unknown origin) expressed in human LNCaP cells assessed as protein degradation measured after 24 hrs incubation by imaging IF assay; assay type: cell-based
[4] = target: T1, Protein cereblon/Androgen receptor; test: PROTAC activity at AR/CRBN in human LNCaP cells assessed as maximal protein degradation measured after 24 hrs incubation by imaging IF assay relative to control; assay type: cell-based
Target sequence in this assay (P10275 whole entry, looked up): as the sequence (P10275 whole entry) above
Target sequence in this assay (Q96SW2 whole entry, looked up): as the sequence (Q96SW2 whole entry) above

LNCaP C4-2 [5] = test: In vivo degradation of AR in human LNCaP C4-2 cells xenografted in mouse model assessed as tumor growth inhibition at 10 mg/kg, po once daily measured after 28 days relative to control; assay type: functional, organism-based; conditions: time 28.0 day
[6] = Volume of distribution at steady state in CD-1 mouse at 1 mg/kg, po and 0.5 mg/kg, iv; assay type: ADME, organism-based; conditions: in vivo
[7] = Half life in CD-1 mouse at 1 mg/kg, po and 0.5 mg/kg, iv; assay type: ADME, organism-based; conditions: in vivo
[8] = Oral bioavailability in CD-1 mouse at 1 mg/kg; assay type: ADME, organism-based; conditions: in vivo
[9] = target: von Hippel-Lindau disease tumor suppressor/Androgen receptor (Homo sapiens) (UniProt P10275+P40337); test: PROTAC activity at AR/VHL in human LNCaP cells assessed as maximal protein degradation measured after 24 hrs incubation by imaging IF assay relative to control; assay type: cell-based
[10] = Metabolic stability in human liver microsomes assessed as intrinsic clearance; assay type: ADME, Microsome; conditions: read-out: CLH
[11] = Volume of distribution at steady state in Han Wistar rat at 1 mg/kg, po and 0.5 mg/kg, iv bolus; assay type: ADME, organism-based; conditions: in vivo
[12] = Oral bioavailability in Beagle dog at 1 mg/kg; assay type: ADME, organism-based, Canis lupus familiaris; conditions: in vivo
[13] = Aqueous solubility of compound at pH 7.4 buffer; assay type: physicochemical
[14] = Oral bioavailability in Han Wistar rat at 1 mg/kg; assay type: ADME, organism-based; conditions: in vivo
[15] = Volume of distribution at steady state in Beagle dog at 1 mg/kg, po and 0.5 mg/kg, iv infusion over 0.25 hrs; assay type: ADME, organism-based, Canis lupus familiaris; conditions: in vivo
[16] = Half life in Beagle dog at 1 mg/kg, po and 0.5 mg/kg, iv infusion over 0.25 hrs; assay type: ADME, organism-based, Canis lupus familiaris; conditions: in vivo
[17] = Half life in Han Wistar rat at 1 mg/kg, po and 0.5 mg/kg, iv bolus; assay type: ADME, organism-based; conditions: in vivo
[18] = Volume of distribution at steady state in CD-1 mouse at 1 mg/kg, po and 0.5 mg/kg, iv bolus; assay type: ADME, organism-based; conditions: in vivo
[19] = Permeability of compound in human Caco-2 cells; assay type: ADME, cell-based
[20] = Half life in CD-1 mouse at 1 mg/kg, po and 0.5 mg/kg, iv bolus; assay type: ADME, organism-based; conditions: in vivo
[21] = target: T1, Protein cereblon/Androgen receptor; test: PROTAC activity at AR/CRBN in human LNCaP cells assessed as protein degradation measured after 24 hrs incubation in presence of excess lenalidomide CRBN ligand by imaging IF assay; assay type: cell-based
Target sequence in this assay (P10275 whole entry, looked up): as the sequence (P10275 whole entry) above
Target sequence in this assay (Q96SW2 whole entry, looked up): as the sequence (Q96SW2 whole entry) above

LNCaP [22] = test: Anti-proliferative activity against human LNCaP cells assessed as number of live cells measured after 7 days by Sytox Green Nucleic Acid stain assay; assay type: functional; conditions: 168 h, time 7 day
[23] = target: T1, Protein cereblon/Androgen receptor; test: PROTAC activity at AR/CRBN in human LNCaP cells assessed as protein degradation measured after 24 hrs incubation in presence of excess enzalutamide AR binder by imaging IF assay; assay type: cell-based
Target sequence in this assay (P10275 whole entry, looked up): as the sequence (P10275 whole entry) above
Target sequence in this assay (Q96SW2 whole entry, looked up): as the sequence (Q96SW2 whole entry) above

[24] = Total plasma concentration in mouse xenografted with human LNCaP C4-2 cells at 30 mg/kg, po once daily measured after 10 days; assay type: ADME, organism-based; conditions: time 10 day, read-out: Cp(T)
LNCaP C4-2 [25] = test: In vivo degradation of AR in human LNCaP C4-2 cells xenografted in mouse model assessed as degradation at 30 mg/kg, po once daily measured after 10 days relative to control; assay type: functional; conditions: time 10 day
LNCaP [26] = test: Effect on AR mRNA level in human LNCaP cells at 0.0001 to 10 uM measured after 24 hrs incubation by QRTPCR analysis; assay type: functional, cell-based; conditions: dose 0.0001-10 µM
[27] = target: T1, Protein cereblon/Androgen receptor; test: PROTAC activity at AR/CRBN in androgen-independent human LNCaP C4-2 cells assessed as protein degradation at 0.0001 to 10 uM measured after 24 hrs incubation by Western blot analysis; assay type: cell-based; conditions: dose 0.0001-10 µM
Target sequence in this assay (P10275 whole entry, looked up): as the sequence (P10275 whole entry) above
Target sequence in this assay (Q96SW2 whole entry, looked up): as the sequence (Q96SW2 whole entry) above

LNCaP C4-2 [28] = test: In vivo antitumor activity in human LNCaP C4-2 cells xenografted in mouse model assessed as tumor growth inhibition at 30 mg/kg, po once daily measured after 28 days relative to control; assay type: functional; conditions: LNCaP C4-2, 672 h, time 28 day, read-out: TGI
[29] = target: T1, Protein cereblon/Androgen receptor; test: PROTAC activity at AR/CRBN in adrogen-sensitive human VCaP cells assessed as protein degradation at 0.0001 to 10 uM measured after 24 hrs incubation by Western blot analysis; assay type: cell-based; conditions: dose 0.0001-10 µM
Target sequence in this assay (P10275 whole entry, looked up): as the sequence (P10275 whole entry) above
Target sequence in this assay (Q96SW2 whole entry, looked up): as the sequence (Q96SW2 whole entry) above

LNCaP C4-2 [30] = test: In vivo degradation of AR in human LNCaP C4-2 cells xenografted in mouse model assessed as tumor growth inhibition at 50 mg/kg, po once daily measured after 28 days relative to control; assay type: functional, organism-based; conditions: time 28.0 day

Protein cereblon/Androgen receptor (Homo sapiens, UniProt P10275+Q96SW2, L702H), sequence (P10275 whole entry L702H, stated change not applied): as the sequence (P10275 whole entry) above, with L702H counted along it
Protein cereblon/Androgen receptor (Homo sapiens, UniProt P10275+Q96SW2, L702H), sequence (Q96SW2 whole entry, stated change not applied): as the sequence (Q96SW2 whole entry) above
von Hippel-Lindau disease tumor suppressor/Androgen receptor (Homo sapiens), sequence (P10275 whole entry, looked up): as the sequence (P10275 whole entry) above
von Hippel-Lindau disease tumor suppressor/Androgen receptor (Homo sapiens), sequence (P40337 whole entry, looked up): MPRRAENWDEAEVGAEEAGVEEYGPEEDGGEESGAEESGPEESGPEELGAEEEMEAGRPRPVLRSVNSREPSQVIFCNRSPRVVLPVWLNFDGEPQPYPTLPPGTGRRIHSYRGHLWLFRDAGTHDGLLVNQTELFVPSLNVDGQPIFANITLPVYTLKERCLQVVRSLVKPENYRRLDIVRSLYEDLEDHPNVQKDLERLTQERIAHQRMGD

microsomal CLint [10] [µL/min/mg] | Compound | DC50 [1] [nM] | Emax [2] [%] | DC50 [3] [nM] | Emax [4] [%] | Vdss [6] [L/kg] | half-life [7] [h] | bioavailability [8] [%] | further results
 | N#Cc1ccc(N2CCC(c3ccc(N4CCC(CN5CCN(c6cc7c(cc6F)C(=O)N(C6CCC(=O)NC6=O)C7=O)CC5)CC4)cc3)CC2)c(F)c1C(F)(F)F (centres undefined) | 87 | 100 | 992 | 100 |  |  |  | 
 | N#Cc1ccc(O[C@H]2CC[C@H](NC(=O)c3ccc(N4CCC(CN5CCN(c6cc7c(cc6F)C(=O)N(C6CCC(=O)NC6=O)C7=O)CC5)CC4)nn3)CC2)cc1Cl (some centres undefined) |  |  |  |  |  |  |  | Activity (LNCaP C4-2 [5]): Active
 | N#Cc1ccc(N2CCC(c3ccc(N4CCC(CN5CCN(c6ccc7c(c6)C(=O)N(C6CCC(=O)NC6=O)C7=O)CC5)CC4)cc3)CC2)c(F)c1C(F)(F)F (centres undefined) | 170 | 100 | 1330 | 100 | 6.2 | 32 | 77 | 
 | Cc1ncsc1-c1ccc([C@H](C)NC(=O)[C@@H]2C[C@@H](O)CN2C(=O)[C@@H](NC(=O)COCCCCCNc2ccc(C(=O)N[C@H]3C(C)(C)[C@H](Oc4ccc(C#N)c(Cl)c4)C3(C)C)cc2)C(C)(C)C)cc1 |  |  |  |  |  |  |  | Emax [9]: 100%
 | Cc1c(N2CCC(c3ccc(N4CCC(CN5CCN(c6ccc7c(c6)CN(C6CCC(=O)NC6=O)C7=O)CC5)CC4)cc3)CC2)ccc(C#N)c1C(F)(F)F (centres undefined) | 152 |  | > 3000 | 70 |  |  |  | 
 | N#Cc1ccc(N2CCC(c3ccc(N4CCC(CN5CCN(c6ccc7c(c6)CN(C6CCC(=O)NC6=O)C7=O)CC5)CC4)cc3)CC2)c(Cl)c1C(F)(F)F (centres undefined) | 48 |  | 144 | 80 |  |  |  | 
21 | N#Cc1ccc(N2CCC(c3ccc(OCCCCN4CCN(c5ccc6c(c5)C(=O)N(C5CCC(=O)NC5=O)C6=O)CC4)cc3)CC2)cc1C(F)(F)F (centres undefined) | 22 |  |  | 100 |  |  |  | 
 | N#Cc1ccc(N2CCC(c3ccc(OCCCCN4CCN(c5ccc6c(c5)CN(C5CCC(=O)NC5=O)C6=O)CC4)cc3)CC2)c(F)c1C(F)(F)F (centres undefined) | 9 | 78 | 107 | 100 | 3.4 | 7 | 30 | 
 | COc1cc(N2CCN(CC3CCN(c4ccc(C5CCN(c6ccc(C#N)c(C(F)(F)F)c6F)CC5)cc4)CC3)CC2)cc2c1C(=O)N(C1CCC(=O)NC1=O)C2 (centres undefined) | 22 | 74 | 92 | 96 | 1.5 | 9 | 62 | Vdss [11]: 9 L/kg; Activity [21]: inactive; bioavailability [12]: 18%; GI50 (LNCaP [22]): 74 nM; bioavailability [14]: 29%; Vdss [15]: 2.4 L/kg; Activity [23]: inactive; half-life [16]: 12.5 h; half-life [17]: 11 h; concentration at 240 h [24]: ~20 µM; Vdss [18]: 1.5 L/kg; Activity (LNCaP C4-2 [25]): >90%; Activity (LNCaP [26]): inactive; Activity [27]: Active; inhibition in vivo at 30 mg/kg (LNCaP C4-2 [28]): 70%; Activity [29]: Active; half-life [20]: 9 h
 | COc1cc(N2CCN(CC3CCN(c4cc(F)c(C5CCN(c6ccc(C#N)c(C(F)(F)F)c6F)CC5)c(F)c4)CC3)CC2)cc2c1C(=O)N(C1CCC(=O)NC1=O)C2 (centres undefined) | 18 | 80 | 633 | 100 | 3.6 | 41 | 30 | 
 | COc1cc(N2CCN(CC3CCN(c4ccc(C5CCN(c6ccc(C#N)c(C(F)(F)F)c6F)CC5)c(F)c4)CC3)CC2)cc2c1C(=O)N(C1CCC(=O)NC1=O)C2 (centres undefined) | 12 | 100 | 469 | 100 | 2.2 | 17 | 50 | 
5 | N#Cc1ccc(N2CCC(c3ccc(OCCCN4CCN(c5ccc6c(c5)CN(C5CCC(=O)NC5=O)C6=O)CC4)cc3)CC2)cc1C(F)(F)F (centres undefined) | 16 |  |  | 79 |  |  |  | 
 | CNC(=O)c1ccc(N2C(=S)N(c3ccc(C#N)c(C(F)(F)F)c3)C(=O)C2(C)C)cc1F |  |  |  |  |  |  |  | Activity (LNCaP C4-2 [30]): Active
12 | N#Cc1ccc(N2CCC(c3ccc(OCCCCCN4CCN(c5ccc6c(c5)CN(C5CCC(=O)NC5=O)C6=O)CC4)cc3)CC2)cc1C(F)(F)F (centres undefined) | 15 |  |  | 94 |  |  |  | 
< 3 | N#Cc1ccc(N2CCC(c3ccc(N4CCC(CN5CCN(c6cc7c(cc6F)C(=O)N(C6CCC(=O)NC6=O)C7)CC5)CC4)cc3)CC2)cc1C(F)(F)F (centres undefined) | 180 |  |  | 92 |  |  |  | 
 | N#Cc1ccc(N2CCC(c3ccc(N4CCC(CN5CCN(c6ccc7c(c6)CN(C6CCC(=O)NC6=O)C7=O)CC5)CC4)cc3)CC2)c(F)c1C(F)(F)F (centres undefined) | 23 |  | 77 | 95 | 2 | 19.5 | 48 | 

Compound | microsomal CLint [10] [µL/min/mg] | DC50 [1] [nM] | Emax [2] [%] | DC50 [3] [nM] | Emax [4] [%] | Vdss [6] [L/kg] | half-life [7] [h] | bioavailability [8] [%] | further results
N#Cc1ccc(N2CCC(c3ccc(N4CCC(CN5CCN(c6ccc7c(c6)CN(C6CCC(=O)NC6=O)C7=O)CC5)CC4)cc3)CC2)cc1C(F)(F)F (centres undefined) | 3 | 18 |  | > 3000 | 85 | 4.5 | 19 | 46 | 
N#Cc1ccc(N2CCC(c3ccc(OCCCCN4CCN(c5ccc6c(c5)CN(C5CCC(=O)NC5=O)C6=O)CC4)cc3)CC2)cc1C(F)(F)F (centres undefined) | 10 | 7 |  | > 3000 | 97 | 5.2 | 5 | 47 | Vdss [11]: 6.2 L/kg; bioavailability [12]: 8%; solubility [13]: < 2 µM; bioavailability [14]: 20%; Vdss [15]: 7.1 L/kg; half-life [16]: 53.5 h; half-life [17]: 6.6 h; Vdss [18]: 5.2 L/kg; Papp [19]: < 0.05 ×10⁻⁶ cm/s; half-life [20]: 5 h
COc1cc(N2CCN(CC3CCN(c4ccc(C5CCN(c6ccc(C#N)c(C(F)(F)F)c6)CC5)cc4)CC3)CC2)cc2c1C(=O)N(C1CCC(=O)NC1=O)C2 (centres undefined) | < 3 | 26 |  | > 3000 | 92 | 2.4 | 6.8 | 50 | Vdss [11]: 7.8 L/kg; bioavailability [12]: 19%; solubility [13]: < 2 µM; bioavailability [14]: 27%; Vdss [15]: 13 L/kg; half-life [16]: 21 h; half-life [17]: 9.1 h; Vdss [18]: 2.4 L/kg; Papp [19]: < 0.05 ×10⁻⁶ cm/s; half-life [20]: 6.8 h
